By DC50 is commonly meant the concentration giving 50% degradation. A high value points to a less potent degrader. In general, Dmax refers to the greatest extent of degradation seen. Higher therefore signals deep degradation.

The experiment concerns the target T1, BCL6 (Homo sapiens, UniProt P41182).
T1 construct: endogenous in cells; host or cells: T47D breast cancer epithelial cells
The experiment in a line: Immunofluorescence high content imaging of BCL6 degradation in T47D cells. The class given is cell-based. As to conditions: T47D breast cancer epithelial cells, 3 days incubation. The procedure, abridged:
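T47D breast cancer cells treated 3 days at 37 °C with an 11-point 3-fold dilution series (top final 0.1 or 1 μM). Fixed with 4% PFA, Triton-permeabilised, stained with anti-BCL6 rabbit antibody plus Alexa-488 secondary, CellMask and Hoechst; imaged at 10×, 4 fields/well.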
On to `CNC(=O)COc1cc2cc(Nc3nc(N4CCC(O[C@H]5C[C@H](N6CC[C@H](c7cc(C)c8c(c7F)CN([C@H]7CCC(=O)NC7=O)C8=O)[C@H](F)C6)C5)CC4)ncc3Cl)ccc2n(C(C)C)c1=O` [Compound 39, 2-({6-[(5-chloro-2-{4-[(1r,3r)-3-[(3S,4R)-4-{2-[(3S)-2,6-dioxopiperidin-3-yl]-4-fluoro-7-methyl-1-oxo-3H-isoindol-5-yl}-3-fluoropiperidin-1-yl]cyclobutoxy]piperidin-1-yl}pyrimidin-4-yl)amino]-1-isopropyl-2-oxoquinolin-3-yl}oxy)-N-methylacetamide], for which the 50% degradation concentration (DC50) was below 0.01 µM and the greatest degradation seen (Dmax) was at least 70%.
The matching figures for `CNC(=O)COc1cc2cc(Nc3nc(N4CCN(C(=O)CC5(O)CCN(c6ccc7c(c6F)CN(C6CCC(=O)NC6=O)C7=O)CC5)CC4)ncc3Cl)ccc2n(C(C)C)c1=O` (stereo not drawn) [Compound 40, 2-{[6-({5-chloro-2-[4-(2-{1-[2-(2,6-dioxopiperidin-3-yl)-4-fluoro-1-oxo-3H-isoindol-5-yl]-4-hydroxypiperidin-4-yl}acetyl)piperazin-1-yl]pyrimidin-4-yl}amino)-1-isopropyl-2-oxoquinolin-3-yl]oxy}-N-methylacetamide]: below 0.01 µM and at least 70%.
Molecule `CNC(=O)COc1cc2cc(Nc3nc(N4CCC(O)(CC(=O)N5CCN(c6ccc7c(c6F)CN(C6CCC(=O)NC6=O)C7=O)CC5)CC4)ncc3Cl)ccc2n(C(C)C)c1=O` (stereo not drawn) [Compound 41, 2-{[6-({5-chloro-2-[4-(2-{4-[2-(2,6-dioxopiperidin-3-yl)-4-fluoro-1-oxo-2,3-dihydro-1H-isoindol-5-yl]piperazin-1-yl}-2-oxoethyl)-4-hydroxypiperidin-1-yl]pyrimidin-4-yl}amino)-2-oxo-1-(propan-2-yl)-1,2-dihydroquinolin-3-yl]oxy}-N-methylacetamide] registered a 50% degradation concentration (DC50) below 0.01 µM and a Dmax of at least 70%.
Regarding `CNC(=O)COc1cc2cc(Nc3nc(N4CCC(CN5CCC(N6CCN(c7ccc8c(c7F)CN(C7CCC(=O)NC7=O)C8=O)CC6)C(F)(F)C5)CC4)ncc3Cl)ccc2n(C(C)C)c1=O` (stereo not drawn) [Compound 42, 2-({6-[(5-chloro-2-{4-[(4-{4-[2-(2,6-dioxopiperidin-3-yl)-4-fluoro-1-oxo-3H-isoindol-5-yl]piperazin-1-yl}-3,3-difluoropiperidin-1-yl)methyl]piperidin-1-yl}pyrimidin-4-yl)amino]-1-isopropyl-2-oxoquinolin-3-yl}oxy)-N-methylacetamide], the half-maximal degradation concentration (DC50) was below 0.01 µM and the Dmax is 50 to 70%.
Turning to `CNC(=O)COc1cc2cc(Nc3nc(N4CCC(CN5CCC(N6CCC(c7ccc8c(c7F)CN(C7CCC(=O)NC7=O)C8=O)CC6)C(F)(F)C5)CC4)ncc3Cl)ccc2n(C(C)C)c1=O` (stereo not drawn) [Compound 43, 2-{[6-({5-chloro-2-[4-({4-[2-(2,6-dioxopiperidin-3-yl)-4-fluoro-1-oxo-2,3-dihydro-1H-isoindol-5-yl]-3′,3′-difluoro-[1,4′-bipiperidin]-1′-yl}methyl)piperidin-1-yl]pyrimidin-4-yl}amino)-2-oxo-1-(propan-2-yl)-1,2-dihydroquinolin-3-yl]oxy}-N-methylacetamide], the DC50 was below 0.01 µM and the Dmax was 50 to 70%.
Consider `CNC(=O)COc1cc2cc(Nc3nc(N4CCC(CN5CCC(C6CCN(c7ccc8c(c7F)CN(C7CCC(=O)NC7=O)C8=O)CC6)C(F)C5)CC4)ncc3Cl)ccc2n(C(C)C)c1=O` (stereo not drawn) [Compound 44, 2-{[6-({5-chloro-2-[4-({1′-[2-(2,6-dioxopiperidin-3-yl)-4-fluoro-1-oxo-2,3-dihydro-1H-isoindol-5-yl]-3-fluoro-[4,4′-bipiperidin]-1-yl}methyl)piperidin-1-yl]pyrimidin-4-yl}amino)-2-oxo-1-(propan-2-yl)-1,2-dihydroquinolin-3-yl]oxy}-N-methylacetamide], for which the 50% degradation concentration (DC50) is below 0.01 µM and the Dmax lay within 50 to 70%.

The record behind these values is patent publication US20240190841A1, “MODULATORS OF BCL6 PROTEOLYSIS AND ASSOCIATED METHODS OF USE” (Arvinas Operations, Inc., priority 2022, published 2024).
